Some test systems named below: CAKI-1 renal; HCT-15 colon; HOP-62 NSCLC; NCI-H522 lung; OVCAR-8 ovarian; PC-3 prostate; SK-MEL-28 melanoma; SNB-19 CNS; SW-620 colon; HT29 colon.
Common to all, as to experiment: growth of human tumour cells (NCI), 48 h

Consider nine compounds from PubChem BioAssay (NCI).

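Cells were grown in 96-well plates and exposed to each compound for 48 hours at five concentrations; endpoints were interpolated linearly between bracketing concentrations, or set to the highest concentration if not reached. GI50 is the concentration that inhibits growth by half. At the TGI there is no net growth.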

With `CN1CCN(Cc2ccc(NC(=O)c3[nH]ncc3Nc3ncnc4[nH]ccc34)cc2)CC1`, the GI50 in the assay with CAKI-1 renal was 1.83 µM; in the assay on HCT-15 colon it was 1.01 µM; in the assay on HOP-62 NSCLC it was 0.348 µM; in the assay on NCI-H522 lung, 0.283 µM; with OVCAR-8 ovarian, 0.387 µM; in the assay on PC-3 prostate, 0.372 µM. Also, the results for the GI50 with SK-MEL-28 melanoma, with SNB-19 CNS and in the assay on SW-620 colon were 0.411 µM, 0.373 µM and 0.381 µM, respectively. Also, the TGI with CAKI-1 renal is 8.19 µM; in the assay on HCT-15 colon it was 62.7 µM; with HOP-62 NSCLC, 3.44 µM; with NCI-H522 lung, 1.63 µM; in the assay with OVCAR-8 ovarian, 3.09 µM; with PC-3 prostate, over 100 µM. In addition, the figures for the TGI in the assay with SK-MEL-28 melanoma, with SNB-19 CNS and with SW-620 colon were 4.24 µM, 6.59 µM and 11.6 µM, respectively.

In the case of `CC1CCCC(C#N)(NOC2=NCCN2)C1` (stereo not given), the GI50 with CAKI-1 renal was 22.7 µM; in the assay with HCT-15 colon, 44.6 µM; in the assay on HT29 colon, 92.2 µM; with NCI-H522 lung, 29 µM; in the assay with OVCAR-8 ovarian, 41 µM; in the assay on PC-3 prostate, over 100 µM. Moreover, the figures for the GI50 with SK-MEL-28 melanoma, in the assay with SNB-19 CNS and with SW-620 colon were over 100 µM, over 100 µM and 36.3 µM, respectively. Besides, the TGI is 79 µM in the assay on CAKI-1 renal; over 100 µM in the assay on HCT-15 colon; over 100 µM in the assay on HT29 colon; over 100 µM in the assay with NCI-H522 lung; over 100 µM with OVCAR-8 ovarian; over 100 µM in the assay on PC-3 prostate. The TGI with SK-MEL-28 melanoma, in the assay on SNB-19 CNS and in the assay on SW-620 colon was over 100 µM each time.

For `NC1=NC(SCc2ccccc2CCl)c2ncn(Cc3ccccc3CCl)c2N1` (stereo not given), the GI50 in the assay with CAKI-1 renal is 1.77 µM; in the assay with HCT-15 colon it was 2.9 µM; in the assay with HOP-62 NSCLC, 1.53 µM; in the assay with HT29 colon it was 1.88 µM; in the assay with OVCAR-8 ovarian, 2.01 µM; in the assay with PC-3 prostate, 1.79 µM. Moreover, the figures for the GI50 in the assay with SK-MEL-28 melanoma, in the assay on SNB-19 CNS and in the assay on SW-620 colon were 2.28 µM, 4.83 µM and 1.54 µM, respectively. For the same compound, the TGI with CAKI-1 renal turned out to be 3.82 µM; in the assay with HCT-15 colon, 12.3 µM; with HOP-62 NSCLC, 3.16 µM; in the assay with HT29 colon, 4.01 µM; in the assay with OVCAR-8 ovarian, 5.09 µM; in the assay with PC-3 prostate it was 3.52 µM. Besides, the TGI in the assay on SK-MEL-28 melanoma stood at 6.97 µM; with SNB-19 CNS, 23.2 µM; in the assay with SW-620 colon, 3.57 µM.

With `Fc1ccc2c(c1)C1=C(CCC2)C(c2ccc(Cl)cc2)NC(=S)N1` (stereo not given), the GI50 in the assay with CAKI-1 renal is 51.7 µM; in the assay on HCT-15 colon, 26.2 µM; in the assay with HT29 colon, 49.9 µM; with NCI-H522 lung, 13.1 µM; in the assay on OVCAR-8 ovarian it was 25.8 µM; in the assay with PC-3 prostate it was 17.6 µM. In addition, the GI50 in the assay with SK-MEL-28 melanoma is 78 µM; in the assay with SNB-19 CNS, 77.9 µM; in the assay with SW-620 colon, 39.1 µM. For the same compound, the TGI in the assay on CAKI-1 renal was over 100 µM; in the assay with HCT-15 colon it was over 100 µM; in the assay on HT29 colon, over 100 µM; in the assay on NCI-H522 lung, 94 µM; in the assay with OVCAR-8 ovarian, over 100 µM; with PC-3 prostate, over 100 µM. The TGI in the assay with SK-MEL-28 melanoma, in the assay with SNB-19 CNS and in the assay on SW-620 colon was over 100 µM each time.

For `COc1cc(C2c3cc4c(cc3OC(O)C2C)OCO4)cc(OC)c1OC` (stereo not given), the TGI with CAKI-1 renal was 37.4 µM; in the assay on HCT-15 colon, over 100 µM; in the assay on HOP-62 NSCLC, over 100 µM; in the assay on NCI-H522 lung it was 0.713 µM; in the assay with OVCAR-8 ovarian, over 20.5 µM; with PC-3 prostate it was over 100 µM. For the same compound, the TGI with SK-MEL-28 melanoma, in the assay with SNB-19 CNS and with SW-620 colon was over 100 µM throughout.

On to `CC12CCC(=O)C(O1)C1C(=O)c3ccc4c(ccc5ccccc54)c3C(=O)C12` (stereo not given), for which the GI50 is 1.82 µM with CAKI-1 renal; 14.2 µM with HCT-15 colon; 26.5 µM in the assay with HOP-62 NSCLC; 13.2 µM in the assay on HT29 colon; 5.52 µM in the assay with NCI-H522 lung; 4.27 µM with OVCAR-8 ovarian. Moreover, the GI50 in the assay with PC-3 prostate was 4.36 µM; in the assay with SK-MEL-28 melanoma it was 29.1 µM; with SNB-19 CNS, 20.9 µM. Moreover, the TGI in the assay on CAKI-1 renal was 6.63 µM; in the assay on HCT-15 colon, 30.6 µM; in the assay with HOP-62 NSCLC, 50.3 µM; in the assay on HT29 colon it was over 100 µM; in the assay on NCI-H522 lung, 14.3 µM; with OVCAR-8 ovarian, 12.7 µM. Moreover, the TGI is 10.7 µM in the assay on PC-3 prostate, over 100 µM in the assay on SK-MEL-28 melanoma and 52 µM in the assay with SNB-19 CNS.

With `C=C(C)[C@@H]1CCc2c(O)c(O)c(=O)cc(C)c2C1`, the TGI was 10.9 µM with CAKI-1 renal; over 100 µM with HCT-15 colon; over 100 µM in the assay on HT29 colon; over 96.6 µM with NCI-H522 lung; 22.3 µM in the assay with OVCAR-8 ovarian; over 100 µM in the assay on PC-3 prostate. In addition, the TGI is over 77.2 µM in the assay on SK-MEL-28 melanoma, over 100 µM with SNB-19 CNS and over 100 µM in the assay with SW-620 colon.

In the case of `COc1cc(Cl)c(CC(=O)c2c[nH]c3ccccc23)cc1OC`, the TGI in the assay on CAKI-1 renal is over 100 µM; with HCT-15 colon, over 100 µM; in the assay on HOP-62 NSCLC, 28.7 µM; in the assay on HT29 colon, over 100 µM; with OVCAR-8 ovarian, over 100 µM; in the assay with PC-3 prostate it was over 100 µM. Further, the TGI in the assay with SK-MEL-28 melanoma was over 100 µM; in the assay on SNB-19 CNS, over 95 µM; with SW-620 colon, over 100 µM.

For `CC12OC(C(=O)C13CC3)C1C(=O)c3c(O)ccc(O)c3C(=O)C12` (stereo not given), the GI50 in the assay with CAKI-1 renal is 4.68 µM; in the assay on HCT-15 colon, 11 µM; with HOP-62 NSCLC, 21.3 µM; in the assay with HT29 colon, 16.2 µM; with NCI-H522 lung, 16.1 µM; with OVCAR-8 ovarian, 15.6 µM. The GI50 in the assay with PC-3 prostate was 16.5 µM; in the assay with SK-MEL-28 melanoma, 24.6 µM; in the assay with SNB-19 CNS, 28.9 µM. Besides, the TGI in the assay with CAKI-1 renal amounted to 17.9 µM; in the assay on HCT-15 colon, 24.7 µM; in the assay with HOP-62 NSCLC, 60.5 µM; with HT29 colon, 38.9 µM; in the assay with NCI-H522 lung it was 32 µM; in the assay on OVCAR-8 ovarian, 36.1 µM. For the same compound, the TGI with PC-3 prostate was 37.1 µM; in the assay on SK-MEL-28 melanoma it was 78.7 µM; in the assay on SNB-19 CNS it was over 100 µM.
